Common to all, as to type: biochemical
In one assay the target is T1, Factor VIIa:rTF complex (Homo sapiens, UniProt P08709).
T1 construct: 2.5 ml 400 nMhuman Factor VIIa
Kind of assay: Factor VIIa assay (S-2288 substrate).

For a further assay, the target named is T2, bovine trypsin (Bos taurus, UniProt P00760).
T2 sequence (P00760 24-246): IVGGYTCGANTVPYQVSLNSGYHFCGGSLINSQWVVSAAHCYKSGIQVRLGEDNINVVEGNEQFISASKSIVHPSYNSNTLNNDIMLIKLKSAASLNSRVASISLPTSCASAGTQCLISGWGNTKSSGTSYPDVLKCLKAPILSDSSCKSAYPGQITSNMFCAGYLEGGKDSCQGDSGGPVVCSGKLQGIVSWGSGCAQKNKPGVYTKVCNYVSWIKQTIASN
Description: Trypsin assay, IC50 (S-2222 substrate). How it is done:
The specificity of the peptide aldehydes (8 through 12) was determined in vitro by measurement of their IC50 against other enzymes involved in hemostasis. A specific concentration of enzyme and its substrate were challenged with varying concentrations of inhibitor. […] Specific assay procedures used are presented below.
96-well microtiter plates were prepared for use in these assays by incubating each well with 300 μL 1% bovine serum albumin (in deionized water) for 30 minutes at 37° C., then washing three times with deionized water.
The substrate was made up in deionized water prior to use.

Assay [1] has as its target T3, Activated human Protein C (Homo sapiens, UniProt P04070).
T3 construct: from tissue
Kind of assay: Protein C assay (Pefachrome PC substrate).

A further assay concerns the target T4, human Factor Xa (Homo sapiens, UniProt P00742).
T4 construct: 50 μL 30 nM human Factor Xa
Description: Factor Xa assay (Pefachrome Xa substrate).

For assay [2], the target named is bovine and human pancreatic trypsin. Kind of assay: Potency: determination of inhibitor constant Ki against trypsin (S-2222 substrate, Dixon plot). Conditions: 37° C., TBS pH 7.4, 15 min preincubation, read-out: Ki For Peptide Aldehydes Against Trypsin. As to the method: The potency and specificity of the compounds of the present invention are determined by in vitro assay methods well known in the art. […] Specifically, the inhibitor constant, Ki, of the compounds can be determined by the method of Dixon, Biochem. J. 55:170 (1953). The specificity is assessed by determination of the concentration, IC50, of compound required to give 50% inhibition of the enzymatic activity of the coagulation enzymes, kallikrein, factor XIa, factor VIIa, factor Xa, thrombin; the fibrinolysis enzymes, plasmin, tissue plasminogen activator (tPA), and urokinase (UK), and the anticoagulation enzyme, protein C. Specificity is found when the concentration of compound giving 50% inhibition of trypsin is low relative to the concentration required to give like inhibition of the other enzymes.
Enzyme activity was determined using as substrate S-2222 [N-benzoyl-L-isoleucyl-L-glutamyl-glycyl-L-arginine-p-nitroanilide hydrochloride where glutamyl side chain is 50% carboxylic acid and 50% methyl ester], purchased from Kabi Diagnostica. The substrate was made up in deionized water prior to use.
A 96-well microtiter plate was prepared for use in the assay by incubating each well with 300 μL of 1% bovine serum albumin (in deionized water) for 30 minutes at 37° C., and washing three times with deionized water.
To each well was added 50 μL TBS (0.1M Tris, 0.14M NaCl, pH 7.4), 50 μL 2.5 nM trypsin and 50 μL peptide aldehyde in TBS or TBS alone. After incubating for 15 minutes at 37° C., 50 μL of S-2222 (at 37° C.) at a specified concentration was added to each well. After mixing, the rate of substramte turnover at 37° C. was measured for 30 minutes at 405 nm (generation of p-nitroaniline). The initial S-2222 concentrations in the assay mixture were 0.45, 0.23, 0.11, 0.056, and 0.028 mM.
Ki was determined graphically using a Dixon plot, as described in Dixon, Biochem. J. 55:170 (1953).

A further assay addresses T5, bovine thrombin (Bos taurus, UniProt P00735).
T5 construct: 50 μL 20 nM bovine thrombin
Description: Thrombin assay (S-2238 substrate).

[3] abbreviates: 30 min preincubation, room temperature, tested 0.025-25 μM, Inact. = no inhibition at highest concentration.
Where [4] appears, read: [IC50 for Trypsin/IC50 for other enzyme]×100, lower = more trypsin selective.

Residues, ends and D or L forms follow the SMILES beside them. *: point of attachment. Boc = CC(C)(C)OC(=O)*

T1 sequence (P08709 213-466 limits assumed): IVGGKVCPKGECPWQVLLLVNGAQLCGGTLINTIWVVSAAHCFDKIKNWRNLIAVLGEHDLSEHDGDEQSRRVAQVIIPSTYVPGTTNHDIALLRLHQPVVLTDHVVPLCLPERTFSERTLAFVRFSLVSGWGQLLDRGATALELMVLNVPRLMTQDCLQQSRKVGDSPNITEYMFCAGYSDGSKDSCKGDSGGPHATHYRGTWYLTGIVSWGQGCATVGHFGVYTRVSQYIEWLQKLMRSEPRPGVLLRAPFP
T1 sequence (P08709 61-212 partner limits assumed): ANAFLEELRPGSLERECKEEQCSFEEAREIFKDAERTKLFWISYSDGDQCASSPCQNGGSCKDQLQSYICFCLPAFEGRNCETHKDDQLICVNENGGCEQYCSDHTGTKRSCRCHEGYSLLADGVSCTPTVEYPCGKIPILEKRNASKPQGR
T1 sequence (P13726 33-295 partner): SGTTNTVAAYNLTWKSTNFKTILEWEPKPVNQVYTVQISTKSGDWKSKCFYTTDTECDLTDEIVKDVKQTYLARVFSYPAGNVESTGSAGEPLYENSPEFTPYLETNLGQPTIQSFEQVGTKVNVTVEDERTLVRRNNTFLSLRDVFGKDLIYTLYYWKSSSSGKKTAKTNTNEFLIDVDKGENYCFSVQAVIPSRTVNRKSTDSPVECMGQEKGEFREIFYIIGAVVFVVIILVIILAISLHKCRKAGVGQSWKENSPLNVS
T3 sequence (P04070 212-461 limits assumed): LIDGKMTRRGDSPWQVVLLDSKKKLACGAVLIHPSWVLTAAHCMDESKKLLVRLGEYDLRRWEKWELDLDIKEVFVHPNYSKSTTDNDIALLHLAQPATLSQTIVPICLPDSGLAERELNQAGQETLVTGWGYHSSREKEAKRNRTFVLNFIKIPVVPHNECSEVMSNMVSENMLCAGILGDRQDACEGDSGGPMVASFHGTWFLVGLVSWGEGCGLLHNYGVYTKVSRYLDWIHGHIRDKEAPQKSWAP
T3 sequence (P04070 43-197 partner limits assumed): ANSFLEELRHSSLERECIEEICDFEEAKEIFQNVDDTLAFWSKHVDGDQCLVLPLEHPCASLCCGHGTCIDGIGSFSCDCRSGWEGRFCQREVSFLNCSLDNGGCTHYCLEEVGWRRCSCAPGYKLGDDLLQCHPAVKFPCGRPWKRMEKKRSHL
T4 sequence (P00742 235-488 limits assumed): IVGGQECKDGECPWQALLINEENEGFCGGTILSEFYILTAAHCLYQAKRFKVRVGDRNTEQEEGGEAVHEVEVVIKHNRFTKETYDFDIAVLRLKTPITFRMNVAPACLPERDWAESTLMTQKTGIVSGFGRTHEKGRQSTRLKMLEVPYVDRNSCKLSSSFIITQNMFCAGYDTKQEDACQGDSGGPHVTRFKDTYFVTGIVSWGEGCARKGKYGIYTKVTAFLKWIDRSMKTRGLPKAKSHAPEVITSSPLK
T4 sequence (P00742 41-179 partner limits assumed): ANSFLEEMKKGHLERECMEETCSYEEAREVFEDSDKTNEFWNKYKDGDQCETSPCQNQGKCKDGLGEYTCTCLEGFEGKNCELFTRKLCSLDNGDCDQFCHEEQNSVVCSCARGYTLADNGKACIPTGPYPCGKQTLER

Take `CC(C)(C)OC(=O)N[C@@H](CC(=O)O)C(=O)N1CCC[C@H]1C(=O)N[C@H](C=O)CCCNC(=N)N` [Compound 9, N-t-butyloxycarbonyl-L-Asp-L-Pro-L-argininal] (Boc-Asp-Pro-Arg-aldehyde): at Factor VIIa:rTF complex (setting [3]), the “IC50 VIIA” value was “Inact”. In addition, the “Calculated % Selectivity VIIa” value at Factor VIIa:rTF complex (setting [4]) is 0%. Besides, the IC50 is 14 nM at bovine trypsin (30 min preincubation, room temperature, tested 0.025-25 μM); over 25 µM at human Factor Xa (setting [3]); 17 µM against bovine thrombin (setting [3]). For the same compound, the “Calculated % Selectivity Trypsin” value on bovine trypsin (trypsin relative to itself (reference, 100 by definition)) is recorded as 100%. Besides, in assay [1] (setting [3]), the “IC50 Protein C” value is on record as “Inact”. Further, in assay [1] (setting [4]), the “Calculated % Selectivity Protein C” value was 0%. In addition, at human Factor Xa (setting [4]), the “Calculated % Selectivity Xa” value was under 0.06%. In addition, in assay [2], the Ki was 0.45 nM. Besides, the “Calculated % Selectivity Thrombin” value on bovine thrombin (setting [4]) is 0.08%.

Values taken from patent publication US5534498A, “Trypsin inhibitors” (Corvas International, Inc., priority 1993, dated 1996).
